The text below walks through data of patent US20240109912A1, “TRICYCLIC PYRIMIDINES AS CYCLIN-DEPENDENT KINASE 7 (CDK7) INHIBITORS” (JANSSEN PHARMACEUTICA NV, priority 2020, published 2024).

Assay [1] deals with CDK7/cyclinH/MAT1 trimeric complex (Homo sapiens (Human), UniProt P50613). The experiment in a line: In vitro CDK7 assay, potency of irreversible covalent inhibitors (kinact/KI).
The subject of assay [2] is RNA polymerase II Serine 5 phosphorylation in A549 cells overexpressing CDK7 mutant (C312S). The experiment in a line: Imaging-based cellular RNA PolII Ser5 phosphorylation assay in A549 cells overexpressing CDK7-mutant (C312S). The format is cell-based, human. The note with it: for IC50: Homo sapiens, A549, A549 cells overexpressing CDK7 mutant (C312S), read-out: CDK7_ A549 mutant hCDK7(pIC50) (converted). In a few lines:
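A stably transduced A549 pool overexpressing CDK7 C312S, a mutant that blocks covalent binding at Cys312, while retaining endogenous wild-type CDK7 was used. Ser5 phosphorylation was measured by imaging, and IC50 values were derived.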

Assay [3] concerns RNA polymerase II Serine 5 phosphorylation (CDK7) in A549 cells.
From the text: To evaluate inhibition of CDK7 kinase activity, a 384-well automated imaging assay was used. This assay detects Serine 5 phosphorylation on a unique heptapeptide sequence in the C-terminal domain of Rpb1 subunit of RNA polymerase II, the downstream substrate of CDK7. This heptapeptide sequence is repeated up to 52 times in the CTD of Rpb1.
RNA Polymerase II Serine 5 phosphorylation was detected using a specific rabbit Phospho-Rpb1 CTD (Ser5) antibody. A549 adenocarcinoma human alveolar basal epithelial cells were seeded in 20 μl medium (DMEM supplemented with 1% Fetal Bovine Serum (heat inactivated 30′ 56° C.), 2 mM L-glutamine, 50 U/ml penicillin 50 μg/ml streptomycin, 1 mM sodium pyruvate and 50 mM hepes) at 1000 cells/well and cultured in poly-D-lysine coated μclear 384 black plates for 20 hours at 37° C. and 5% CO2.
After incubation cells were challenged with compound for 3 hours at 37° C. and 5% CO2. DMSO was used as high control and as low control 10 μM of the following reference compound was used:
40 nl of test compounds and controls were spotted in cell plates using Echo Liquid Handler (Echo 550, Labcyte). Incubation was followed by 20 minutes fixation with 20 μl 10% formaldehyde at room temperature. Medium/formaldehyde solution was removed, plates were washed 3 times with 30 μl D-PBS (w/o Ca^2+ and Ma^2+) and permeabilization was done by adding 20 μl ice cold methanol for 20 minutes. Cells were washed again 3 times with 30 μl D-PBS and 20 μl blocking buffer (25 ml fetal bovine serum in 500 ml D-PBS) was added for 1 hour.
After removing blocking buffer 20 μl 1/1000 primary antibody rabbit Phospho-Rpb1 CTD (Ser5) antibody was added which binds to the phosphorylated Serine5 of the heptapeptide sequences in the CTD of Rpb1. […] Last, plates were washed 2 times with 30 μl D-PBS and wells were filled with 40 μL D-PBS, plates were sealed (Thermowell sealing tape) and stored at 4° C. until reading. Plates were read with Opera Phenix (Perkin Elmer) with 10× air objective. Data were calculated and analyzed in Phaedra.
IC50 values were calculated using the following formula
Average value of all HC's and all LC's are used for normalizations.
% Effect=100−(sample-LC)/(HC-LC)×100
% Control=(sample/HC)×100
From this an IC50 value can be obtained. An estimate of the slope of the plot in terms of the Hill coefficient is also obtained.
The mark [4] stands for this setting: CDK7 (20 nM enz.) (KI, μM), 20 nM enz.
[5] abbreviates: read-out: CDK7 (20 nM enz.) (kinact, s^−1), 20 nM enz.
The mark [6] stands for this setting: read-out: CDK7 (20 nM enz.) (kinact/ KI, M^−1*s^−1), 20 nM enz.
[7] abbreviates: read-out: CDK7 (kinact, s^−1), Table B.
Setting [8] is: read-out: CDK7 (kinact/KI, M^−1*s^−1), Table B.
Setting [9] is: read-out: CDK7 (20 nM enz.) (kobs/[I], M^−1*s^−1), 20 nM enz.

Structures are written as SMILES. “And” between values parts separate entries of the source, which are not always exact repeats. Equal entries are not always repeated. Where two headings read alike, the source gives them in different places.

CDK7/cyclinH/MAT1 trimeric complex, sequence (P50613 whole entry): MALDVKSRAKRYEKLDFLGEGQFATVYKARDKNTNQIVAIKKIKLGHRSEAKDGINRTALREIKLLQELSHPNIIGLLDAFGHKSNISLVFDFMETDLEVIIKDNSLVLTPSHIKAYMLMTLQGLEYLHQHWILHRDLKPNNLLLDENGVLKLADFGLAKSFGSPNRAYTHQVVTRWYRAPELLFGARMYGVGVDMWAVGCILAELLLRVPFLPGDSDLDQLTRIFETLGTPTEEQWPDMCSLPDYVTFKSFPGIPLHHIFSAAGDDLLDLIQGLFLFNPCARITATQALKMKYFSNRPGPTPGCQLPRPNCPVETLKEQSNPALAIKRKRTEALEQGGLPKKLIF
CDK7/cyclinH/MAT1 trimeric complex, sequence (P51946 whole entry partner): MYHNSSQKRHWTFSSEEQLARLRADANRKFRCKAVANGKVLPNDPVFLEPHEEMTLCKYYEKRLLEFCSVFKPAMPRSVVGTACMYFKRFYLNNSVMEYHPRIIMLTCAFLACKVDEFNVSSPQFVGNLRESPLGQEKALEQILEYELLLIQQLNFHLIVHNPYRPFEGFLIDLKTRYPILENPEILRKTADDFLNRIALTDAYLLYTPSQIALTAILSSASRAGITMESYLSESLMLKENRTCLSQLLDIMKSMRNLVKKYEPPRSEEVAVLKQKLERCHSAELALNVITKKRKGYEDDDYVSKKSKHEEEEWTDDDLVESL
CDK7/cyclinH/MAT1 trimeric complex, sequence (P51948 whole entry partner): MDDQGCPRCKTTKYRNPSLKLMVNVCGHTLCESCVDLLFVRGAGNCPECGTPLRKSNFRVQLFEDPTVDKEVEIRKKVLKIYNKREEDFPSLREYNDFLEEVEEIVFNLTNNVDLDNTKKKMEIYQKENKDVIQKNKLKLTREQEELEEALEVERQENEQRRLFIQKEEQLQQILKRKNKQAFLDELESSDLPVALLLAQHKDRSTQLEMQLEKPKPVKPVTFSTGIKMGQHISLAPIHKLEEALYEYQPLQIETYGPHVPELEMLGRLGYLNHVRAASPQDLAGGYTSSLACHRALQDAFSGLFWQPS

Take `C=CC(=O)N1CC[C@H](N2CC(c3cc(F)c4c(c3)Nc3ncnc(N5CCOCC5)c3CO4)C2)C1` (single isomer, unassigned) [compound 54]: the Ki in assay [1] (setting [4]) was found to be 1.36 µM. Besides, the inactivation rate constant (kinact) (commonly the rate constant of inactivation at saturating inhibitor) in assay [1] (setting [5]) amounted to 7.77e-05 s⁻¹. Besides, the kinact/KI in assay [1] (setting [6]) is 57.2 M⁻¹ s⁻¹. For the same compound, the IC50 in assay [2] is above 10 µM; in assay [3], 1050 nM.
For `C#Cc1cc(C2CN([C@H]3CCN(C(=O)C=C)C3)C2)cc2c1O[C@H](C)c1c(ncnc1N1CCS(=O)(=O)CC1)N2` [compound 193] the same measures were 0.156 µM, 2.62e-05 s⁻¹, 168 M⁻¹ s⁻¹, above 10 µM and 513 nM.
For `C=CC(=O)N1CC[C@@H](N2CC(c3cc4c(c(C)n3)OCc3c(ncnc3N3CCS(=O)(=O)CC3)N4)C2)C1` (single isomer, unassigned) [compound 79] the same measures were 0.189 µM, 3.93e-05 s⁻¹, 209 M⁻¹ s⁻¹, above 10 µM and 4570 nM.
Turning to `C=CC(=O)N1CC(N2CCC(c3cc(C)c4c(c3)Nc3ncnc(N5CCC(CCO)C5)c3CO4)CC2)C1` (stereo not drawn) [compound 113], in assay [1] (setting [5]), the kinact came to 3.36e-06 s⁻¹. Further, the figures for the IC50 in assay [2] and in assay [3] were above 10 µM and 9120 nM, respectively.
In the case of `C=CC(=O)N1CCC(N2CC(c3cc(C#N)c4c(c3)Nc3ncnc(N5CCOCC5)c3CO4)C2)CC1` [compound 120], the Ki in assay [1] (setting [4]) was 0.295 µM. Also, the kinact in assay [1] (setting [5]) was determined as 3.8e-05 s⁻¹. For the same compound, the kinact/KI in assay [1] (setting [6]) was 129 M⁻¹ s⁻¹. The IC50 in assay [2] is above 10 µM; in assay [3] it was 525 nM.
Compound `C=CC(=O)N1CC(N2CCC(c3cc(C)c4c(c3)Nc3ncnc(-c5cncc(OCC)c5)c3CO4)CC2)C1` [compound 82] showed a Ki in assay [1] (setting [4]) of 1.28 µM. Further, the kinact in assay [1] (setting [5]) came to 4.27e-05 s⁻¹. In addition, the kinact/KI in assay [1] (setting [6]) was determined as 33.4 M⁻¹ s⁻¹. The IC50 in assay [2] was above 10 µM; in assay [3], 1260 nM.
In turn, `C=CC(=O)N1CC[C@@H](N2CC(c3cc(C)c4c(c3)Nc3ncnc(N5CCOCC5)c3CO4)C2)C1` [compound 17] had a Ki in assay [1] (setting [4]) of 0.716 µM. Also, in assay [1] (setting [5]), the kinact was 6.7e-05 s⁻¹. In assay [1] (setting [6]), the kinact/KI came to 93.7 M⁻¹ s⁻¹. The figures for the IC50 in assay [2] and in assay [3] were above 10 µM and 380 nM, respectively.
In turn, `C=CC(=O)N1CCC(N2CCC(c3ccc4c(c3)Nc3ncnc(N5CCOCC5)c3CO4)CC2)C(F)C1` (stereo not drawn) [compound 15] displayed a Ki in assay [1] (setting [4]) of 0.632 µM. Moreover, the kinact in assay [1] (setting [5]) is 5.72e-05 s⁻¹. Besides, the kinact/KI in assay [1] (setting [6]) was 90.5 M⁻¹ s⁻¹. Also, the IC50 in assay [2] is above 10 µM; in assay [3], 955 nM.
In the same order, the values of `C=CC(=O)N1CC(N2CC[C@H](c3cc(C)c4c(c3)Nc3ncnc(N5CCOCC5)c3CO4)C2)C1` [compound 23] are 0.255 µM, 5.86e-05 s⁻¹, 230 M⁻¹ s⁻¹, above 10 µM and 603 nM.
For `C=CC(=O)N1CC(N2CCC(c3cc(F)c4c(c3)Nc3ncnc(N5CCOCC5)c3CO4)CC2)C1` [compound 20] the same measures were 0.0693 µM, 4.85e-05 s⁻¹, 699 M⁻¹ s⁻¹, above 10 µM and 646 nM.
`C=CC(=O)N1CC(N2CCC(c3cc(C)c4c(c3)Nc3ncnc(-c5ccnn5C)c3CO4)CC2)C1` [compound 80] had a Ki in assay [1] (setting [4]) of 0.32 µM. For the same compound, the kinact in assay [1] (setting [5]) came out at 4.18e-05 s⁻¹. The kinact/KI in assay [1] (setting [6]) was 131 M⁻¹ s⁻¹. Further, the IC50 in assay [2] is above 10 µM; in assay [3], 219 nM.
Take `C=CC(=O)N1CC(N2CCN(c3ccc4c(c3)Nc3ncnc(N5CCOCC5)c3CO4)CC2)C1` [compound 6]: the Ki in assay [1] (CDK7 (KI(μM)), Table B) came out at 2.73 µM. The kinact in assay [1] (setting [7]) came out at 0.000504 s⁻¹. Also, the kinact/KI in assay [1] (setting [8]) is 185 M⁻¹ s⁻¹. Also, the IC50 was above 10 µM in assay [2] and 3800 nM in assay [3].
Turning to `C=CC(=O)N1CC[C@H](N2CC(c3cc4c(c(C)n3)OCc3c(ncnc3N3CCS(=O)(=O)CC3)N4)C2)C1` (single isomer, unassigned) [compound 78], the Ki in assay [1] (setting [4]) amounted to 0.168 µM. Also, the kinact in assay [1] (setting [5]) is 3.85e-05 s⁻¹. For the same compound, the kinact/KI in assay [1] (setting [6]) is 229 M⁻¹ s⁻¹. Moreover, the IC50 in assay [2] was above 10 µM; in assay [3], 5370 nM.
Consider `C=CC(=O)NCCN1CCC(c2ccc3c(c2)Nc2ncnc(N4CCOCC4)c2CO3)CC1` [compound 3], for which the Ki in assay [1] (CDK7 (KI(μM)), Table B) was determined as 1.03 µM. The kinact in assay [1] (setting [7]) was found to be 0.000166 s⁻¹. The kinact/KI in assay [1] (setting [8]) worked out at 161 M⁻¹ s⁻¹. Moreover, the figures for the IC50 in assay [2] and in assay [3] were above 10 µM and 912 nM, respectively.
For `C=CC(=O)N1CC(N2CCC(c3ccc4c(c3)Nc3ncnc(C5CCOCC5)c3CO4)CC2)C1` [compound 38] the same measures were 0.251 µM, 9.7e-05 s⁻¹, 386 M⁻¹ s⁻¹, above 10 µM and 1150 nM.
The compound `C=CC(=O)N1CC(N2CC[C@@H](c3cc4c(c(C)n3)OCc3c(ncnc3N3CCS(=O)(=O)CC3)N4)C2)C1` [compound 30] had a Ki in assay [1] (setting [4]) of 0.175 µM. Further, the kinact in assay [1] (setting [5]) was 5.79e-05 s⁻¹. Besides, in assay [1] (setting [6]), the kinact/KI came to 330 M⁻¹ s⁻¹. In addition, the IC50 in assay [2] is above 10 µM; in assay [3], 1510 nM.
In the same order, the values of `C#Cc1cc(C2CN([C@H]3CCN(C(=O)C=C)C3)C2)cc2c1O[C@@H](C)c1c(ncnc1N1CCS(=O)(=O)CC1)N2` [compound 194] are 0.0177 µM, 2.42e-05 s⁻¹, 1370 M⁻¹ s⁻¹, above 10 µM and 158 nM.
In assay [1] (setting [4]), `CC#CC(=O)N1CCC(N2CC=C(c3cc(C)c4c(c3)Nc3ncnc(N5CCS(=O)(=O)CC5)c3CO4)CC2)CC1` [compound 138] displayed a Ki of 0.0908 µM. Moreover, the kinact in assay [1] (setting [5]) is 7.15e-05 s⁻¹. Besides, the kinact/KI in assay [1] (setting [6]) turned out to be 788 M⁻¹ s⁻¹. Besides, the IC50 in assay [2] was above 10 µM; in assay [3], 46.8 nM.
For `C=CC(=O)N1CCC(N2CC(c3cc(C)c4c(c3)Nc3ncnc(N5CCOCC5)c3CO4)C2)C(F)C1` (stereo not drawn) [compound 28] the same measures were 0.686 µM, 8.88e-05 s⁻¹, 129 M⁻¹ s⁻¹, above 10 µM and 759 nM.
For `C=CC(=O)N1CCC(N2CC[C@@H](c3cc(C)c4c(c3)Nc3ncnc(N5CCOCC5)c3CO4)C2)CC1` [compound 25] the same measures were 1.22 µM, 6.34e-05 s⁻¹, 52.1 M⁻¹ s⁻¹, above 10 µM and 741 nM.
As for `C=CC(=O)N1CCC(N2CCC(c3cc(C)c4c(c3)Nc3ncnc(N5CCS(=N)(=O)CC5)c3CO4)CC2)C1` (stereo not drawn) [compound 104], the kinact/KI in assay [1] (setting [9]) was 1140 M⁻¹ s⁻¹. Also, the IC50 in assay [2] is above 10 µM; in assay [3], 50.1 nM.
Regarding `CC#CC(=O)N1CC(N2CCC(c3cc(C)c4c(c3)Nc3ncnc(N5CCS(=O)(=O)CC5)c3[C@@H](C)O4)CC2)C1` [compound 148], in assay [1] (20 nM enz.), the “CDK7 (20 nM enz.) (kinact, s^−1)” value was 6.08e-05 s⁻¹ and 5.32e-05 s⁻¹ and 4.3e-05 s⁻¹; the “CDK7 (20 nM enz.) (kobs/[I], M^−1*s^−1)” value came to 1230.83 M⁻¹ s⁻¹. In assay [1] (setting [4]), the Ki was 0.0218 µM and 0.0473 µM and 0.0348 µM and 0.00601 µM. Moreover, in assay [1] (setting [5]), the kinact turned out to be 4.04e-05 s⁻¹. Moreover, in assay [1] (setting [9]), the kinact/KI was determined as 952 M⁻¹ s⁻¹. Moreover, in assay [2], the IC50 was above 10 µM. Moreover, the IC50 in assay [3] was 42.7 nM and 60.3 nM and 75.9 nM and 63.1 nM and ~61.7 nM.
`C=CC(=O)N1CC[C@H](N2CCC(c3ccc4c(c3)Nc3ncnc(N5CCOCC5)c3CO4)CC2)C1` [compound 5]: in assay [1] (CDK7 (KI(μM)), Table B), the Ki was found to be 0.595 µM. Further, the kinact in assay [1] (setting [7]) is 0.000243 s⁻¹. The kinact/KI in assay [1] (setting [8]) stood at 408 M⁻¹ s⁻¹. Moreover, the IC50 in assay [2] was around 8.91 µM; in assay [3], 891 nM.
Regarding `CC#CC(=O)N1CC(C)(N2CCC(c3cc(C)c4c(c3)Nc3ncnc(N5CCS(=O)(=O)CC5)c3[C@@H](C)O4)CC2)C1` [compound 144], the Ki in assay [1] (setting [4]) turned out to be 0.00389 µM. In assay [1] (setting [5]), the kinact stood at 4.73e-05 s⁻¹. Further, in assay [1] (setting [6]), the kinact/KI came to 12200 M⁻¹ s⁻¹. Also, the IC50 in assay [2] was above 10 µM; in assay [3] it was around 46.8 nM.
In the same order, the values of `C=CC(=O)N1CC(N2CCC(c3cc(F)c4c(c3)Nc3ncnc(-c5cnn(C)c5)c3CO4)CC2)C1` [compound 21] are 0.408 µM, 5.42e-05 s⁻¹, 133 M⁻¹ s⁻¹, above 10 µM and 832 nM.
For `CC#CC(=O)N1CC(N2CCC(c3cc4c(c(C)n3)O[C@@H](C)c3c(ncnc3N3CCS(=O)(=O)CC3)N4)CC2)C1` (single isomer, unassigned) [compound 140] the same measures were 2.57 µM, 8.1e-05 s⁻¹, 31.5 M⁻¹ s⁻¹, above 10 µM and 3160 nM.
In the same order, the values of `C=CC(=O)N1CC(N2CCC(c3cc(C#N)c4c(c3)Nc3ncnc(-c5cnn(C)c5)c3CO4)CC2)C1` [compound 74] are 0.132 µM, 5.42e-05 s⁻¹, 412 M⁻¹ s⁻¹, above 10 µM and 1170 nM.
Regarding `C=CC(=O)N1CC[C@@H](N2CC(c3cc(C)c4c(c3)Nc3ncnc(N5CCS(=O)(=O)CC5)c3[C@H](C)O4)C2)C1` (single isomer, unassigned) [compound 118], in assay [1] (20 nM enz.), the “CDK7 (20 nM enz.) (kinact, s^−1)” value was 5.02e-05 s⁻¹ and the “CDK7 (20 nM enz.) (kinact/ KI, M^−1*s^−1)” value stood at 179.017 M⁻¹ s⁻¹. The Ki in assay [1] (setting [4]) is 0.28 µM and 0.281 µM. Besides, the kinact in assay [1] (setting [5]) is 4.2e-05 s⁻¹. The kinact/KI in assay [1] (setting [6]) came out at 150 M⁻¹ s⁻¹. In addition, the “CDK7_ A549 mutant hCDK7(pIC50)” value in assay [2] (A549 cells overexpressing CDK7 mutant (C312S)) is below 5. Moreover, the IC50 in assay [2] is above 10 µM. The IC50 in assay [3] is 204 nM and 339 nM.
